Test [1] has as its target Platelet-derived growth factor receptor alpha (Homo sapiens, UniProt P16234). Put plainly: Inhibition of recombinant human N-terminal GST-His6 tagged PDGFRalpha (Q551 to L1089 residues) expressed in Sf9 insect cells using poly(Ala,Glu,Lys,Tyr)6:2:5:1 hydrobromide as substrate in presence of [gamma-33P]ATP.
The target in test [2] is Cyclin-dependent kinase 2/cyclin E1 (Homo sapiens, UniProt P24941). As to the kind of experiment: Inhibition of CDK2/cyclin E (unknown origin) expressed in baculovirus infected insect Sf9 cells using histone H1 as substrate in presence of [gamma-33P]ATP.
Test [3] concerns HCC827. As to the kind of experiment: Cytotoxicity against human HCC827 cells assessed as growth inhibition after 72 hrs by calcein-AM dye based fluorescence assay. The format is functional. As to conditions: HCC827, 72 h.
For another test, the system named is BT-474. Put plainly: Cytotoxicity against human BT474 cells assessed as growth inhibition after 72 hrs by calcein-AM dye based fluorescence assay. The format is functional. As to conditions: BT-474, 72 h.
The subject of a further test is MCF7. Put plainly: Cytotoxicity against human MCF7 cells assessed as growth inhibition after 72 hrs by calcein-AM dye based fluorescence assay. The class given is functional. Conditions: MCF7, 72 h.
Test [4] concerns K562. As to the kind of experiment: Cytotoxicity against human K562 cells assessed as growth inhibition after 72 hrs by calcein-AM dye based fluorescence assay. As to conditions: K562, 72 h. The format is functional.
Test [5] concerns EOL1. Put plainly: Cytotoxicity against human EOL-1 cells assessed as growth inhibition after 72 hrs by calcein-AM dye based fluorescence assay. The format is functional. Conditions: EOL1, 72 h.
The subject of test [6] is EOL1. Put plainly: Cell cycle arrest in human EOL-1 cells assessed as G1/G2-M ratio at GI50 concentration after 24 hrs by propidium iodide staining-based flow cytometry relative to control. The class given is functional. In general terms: In flow cytometry, cells or beads pass a laser one at a time.
The subject of test [7] is HCC827. As to the kind of experiment: Cell cycle arrest in human HCC827 cells assessed as G1/G2-M ratio at GI50 concentration after 24 hrs by propidium iodide staining-based flow cytometry relative to control. The format is functional.
Test [8] concerns K562. Put plainly: Cell cycle arrest in human K562 cells assessed as G1/G2-M ratio at GI50 concentration after 24 hrs by propidium iodide staining-based flow cytometry relative to control. The class given is functional.
The subject of test [9] is EOL1. Put plainly: Cell cycle arrest in human EOL-1 cells assessed as accumulation at sub-G1 phase at 0.008 uM after 24 hrs by propidium iodide staining-based flow cytometry (reference value: 20%). The class given is functional.
The test system of test [10] is EOL1. Put plainly: Cell cycle arrest in human EOL-1 cells assessed as accumulation at sub-G1 phase at 0.04 uM after 24 hrs by propidium iodide staining-based flow cytometry (reference value: 20%). The format is functional.
The test system of test [11] is EOL1. As to the kind of experiment: Cell cycle arrest in human EOL-1 cells assessed as accumulation at sub-G1 phase at 0.2 uM after 24 hrs by propidium iodide staining-based flow cytometry (reference value: 20%). The class given is functional.
For test [12], the system named is EOL1. Put plainly: Cell cycle arrest in human EOL-1 cells assessed as accumulation at sub-G1 phase at 1 uM after 24 hrs by propidium iodide staining-based flow cytometry (reference value: 20%). The class given is functional.
Test [13] deals with EOL1. As to the kind of experiment: Cell cycle arrest in human EOL-1 cells assessed as accumulation at G1 phase at 0.008 uM after 24 hrs by propidium iodide staining-based flow cytometry (reference value: 60.9%). The class given is functional.
Test [14] concerns EOL1. As to the kind of experiment: Cell cycle arrest in human EOL-1 cells assessed as accumulation at G1 phase at 0.04 uM after 24 hrs by propidium iodide staining-based flow cytometry (reference value: 60.9%). The class given is functional.
The subject of test [15] is EOL1. Put plainly: Cell cycle arrest in human EOL-1 cells assessed as accumulation at G1 phase at 0.2 uM after 24 hrs by propidium iodide staining-based flow cytometry (reference value: 60.9%). The format is functional.
The test system of test [16] is EOL1. Put plainly: Cell cycle arrest in human EOL-1 cells assessed as accumulation at G1 phase at 1 uM after 24 hrs by propidium iodide staining-based flow cytometry (reference value: 60.9%). The format is functional.
Test [17] concerns EOL1. As to the kind of experiment: Cell cycle arrest in human EOL-1 cells assessed as accumulation at S phase at 0.008 uM after 24 hrs by propidium iodide staining-based flow cytometry (reference value: 20.7%). The class given is functional.
In test [18] the test system is EOL1. Put plainly: Cell cycle arrest in human EOL-1 cells assessed as accumulation at S phase at 0.04 uM after 24 hrs by propidium iodide staining-based flow cytometry (reference value: 20.7%). The format is functional.
In test [19] the test system is EOL1. Put plainly: Cell cycle arrest in human EOL-1 cells assessed as accumulation at S phase at 0.2 uM after 24 hrs by propidium iodide staining-based flow cytometry (reference value: 20.7%). The format is functional.
The test system of test [20] is EOL1. Put plainly: Cell cycle arrest in human EOL-1 cells assessed as accumulation at S phase at 1 uM after 24 hrs by propidium iodide staining-based flow cytometry (reference value: 20.7%). The class given is functional.
Test [21] deals with EOL1. Put plainly: Cell cycle arrest in human EOL-1 cells assessed as accumulation at G2/M phase at 0.008 uM after 24 hrs by propidium iodide staining-based flow cytometry (reference value: 18.4%). The format is functional.
Test [22] deals with EOL1. As to the kind of experiment: Cell cycle arrest in human EOL-1 cells assessed as accumulation at G2/M phase at 0.04 uM after 24 hrs by propidium iodide staining-based flow cytometry (reference value: 18.4%). The format is functional.
Test [23] deals with EOL1. As to the kind of experiment: Cell cycle arrest in human EOL-1 cells assessed as accumulation at G2/M phase at 0.2 uM after 24 hrs by propidium iodide staining-based flow cytometry (reference value: 18.4%). The format is functional.
Test [24] has as its system EOL1. As to the kind of experiment: Cell cycle arrest in human EOL-1 cells assessed as accumulation at G2/M phase at 1 uM after 24 hrs by propidium iodide staining-based flow cytometry (reference value: 18.4%). The format is functional.

Molecules are shown by their SMILES.

Chain of Platelet-derived growth factor receptor alpha (P16234 whole entry, the tested form may be a part): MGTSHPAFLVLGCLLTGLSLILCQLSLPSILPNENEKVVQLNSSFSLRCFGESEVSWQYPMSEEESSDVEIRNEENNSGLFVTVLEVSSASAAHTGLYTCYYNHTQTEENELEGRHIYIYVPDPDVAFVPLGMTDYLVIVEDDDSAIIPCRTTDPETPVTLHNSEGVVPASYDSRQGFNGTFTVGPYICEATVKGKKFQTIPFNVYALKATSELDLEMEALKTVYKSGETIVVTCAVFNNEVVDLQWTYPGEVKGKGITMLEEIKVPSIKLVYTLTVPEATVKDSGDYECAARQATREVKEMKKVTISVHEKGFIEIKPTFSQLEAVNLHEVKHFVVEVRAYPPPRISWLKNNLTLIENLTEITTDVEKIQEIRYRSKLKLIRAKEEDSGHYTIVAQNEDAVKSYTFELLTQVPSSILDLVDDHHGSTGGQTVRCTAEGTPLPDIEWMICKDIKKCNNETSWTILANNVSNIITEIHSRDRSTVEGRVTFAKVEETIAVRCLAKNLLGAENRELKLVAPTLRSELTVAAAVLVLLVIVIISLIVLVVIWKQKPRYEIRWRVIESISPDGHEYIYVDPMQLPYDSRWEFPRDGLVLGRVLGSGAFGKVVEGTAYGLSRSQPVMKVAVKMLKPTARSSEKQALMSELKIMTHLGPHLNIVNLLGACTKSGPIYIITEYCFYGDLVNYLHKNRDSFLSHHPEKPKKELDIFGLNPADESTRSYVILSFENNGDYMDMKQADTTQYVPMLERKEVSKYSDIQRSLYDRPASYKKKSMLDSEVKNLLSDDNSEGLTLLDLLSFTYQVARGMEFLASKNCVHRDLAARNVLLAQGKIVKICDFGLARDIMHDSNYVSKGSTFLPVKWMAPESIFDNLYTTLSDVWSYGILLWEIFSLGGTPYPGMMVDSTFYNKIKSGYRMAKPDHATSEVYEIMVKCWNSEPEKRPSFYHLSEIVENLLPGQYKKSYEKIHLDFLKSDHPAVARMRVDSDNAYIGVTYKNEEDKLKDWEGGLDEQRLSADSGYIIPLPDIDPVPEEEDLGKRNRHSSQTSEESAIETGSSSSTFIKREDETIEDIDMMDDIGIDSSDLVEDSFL

The term IC50 denotes the concentration that inhibits the measured activity by half. What is called GI50 is the concentration at which growth is held to half of that of the control. With `CC(C)CCn1cnc2c(Nc3cccc(Cl)c3)nc(N[C@H]3CC[C@H](N)CC3)nc21`, the IC50 in test [1] came to 66 nM; in test [2] it was 275 nM. The GI50 in the test on HCC827 [3] is 10300 nM; with BT-474, 3800 nM; in the test with MCF7 it was 2100 nM; in the test on K562 [4], 1500 nM; in the test on EOL1 [5], 60 nM. Moreover, the Ratio in the test with EOL1 [6] was found to be 6; in the test on HCC827 [7] it was 1.33; in the test with K562 [8], 1.1. Also, the Activity was 27.9% with EOL1 [9]; 36.5% in the test on EOL1 [10]; 49.8% in the test with EOL1 [11]; 46.3% in the test on EOL1 [12]; 77.1% in the test with EOL1 [13]; 86.1% in the test on EOL1 [14]. The Activity with EOL1 [15] is 86.3%; in the test on EOL1 [16] it was 79.9%; in the test with EOL1 [17], 12.5%; with EOL1 [18], 7.7%; in the test on EOL1 [19], 10.6%; in the test with EOL1 [20], 14.5%. Moreover, the Activity in the test with EOL1 [21] is given as 10.4%; in the test on EOL1 [22], 6.2%; in the test with EOL1 [23] it was 3.1%; in the test on EOL1 [24], 5.6%.
For `CC(C)=CCn1cnc2c(Nc3cccc(Cl)c3)nc(N[C@H]3CC[C@H](N)CC3)nc21`, the IC50 turned out to be 187 nM in test [1] and 227 nM in [2]. Besides, the GI50 in the test with HCC827 [3] was 13500 nM; in the test with BT-474, 7000 nM; in the test on MCF7 it was 4200 nM; in the test on K562 [4], 3500 nM; in the test on EOL1 [5], 80 nM. Moreover, the Ratio in the test on EOL1 [6] is on record as 3.1; with HCC827 [7] it was 2.69; in the test with K562 [8] it was 0.75.
As to `CCCCCCn1cnc2c(Nc3cccc(Cl)c3)nc(N[C@H]3CC[C@H](N)CC3)nc21`, the results for the IC50 in [1] and in test [2] were 195 nM and 500 nM, respectively. The GI50 is 10200 nM with HCC827 [3]; 5100 nM in the test with BT-474; 2700 nM with MCF7; 2300 nM in the test on K562 [4]; 310 nM in the test with EOL1 [5]. Besides, the Ratio was 1.86 with EOL1 [6], 7.37 in the test on HCC827 [7] and 0.79 in the test with K562 [8].
As for `CCCCCCn1cnc2c(Nc3cc(OC)cc(OC)c3)nc(N[C@H]3CC[C@H](N)CC3)nc21`, the IC50 worked out at 1410 nM in [1] and 680 nM in [2]. In addition, the GI50 in the test with HCC827 [3] was 9100 nM; in the test on BT-474 it was 3700 nM; in the test with MCF7 it was 3500 nM; in the test on K562 [4], 1900 nM; with EOL1 [5], 380 nM. Besides, the values for the Ratio with EOL1 [6], in the test with HCC827 [7] and in the test with K562 [8] were 3.78, 9.67 and 1.4, respectively.
Take `CCCCCCn1cnc2c(Nc3ccc(Cl)cc3)nc(N[C@H]3CC[C@H](N)CC3)nc21`: the results for the IC50 in test [1] and in test [2] were 156 nM and 433 nM, respectively. Moreover, the GI50 was 11700 nM in the test with HCC827 [3]; 5500 nM in the test on BT-474; 4200 nM in the test with MCF7; 2100 nM in the test with K562 [4]; 440 nM in the test on EOL1 [5]. In addition, the Ratio is reported as 4.61 with EOL1 [6], 5.2 in the test on HCC827 [7] and 0.88 in the test on K562 [8].
`N[C@H]1CC[C@H](Nc2nc(Nc3cccc(Cl)c3)c3ncn(Cc4ccccc4)c3n2)CC1`: the IC50 turned out to be 5100 nM in [1] and 2830 nM in test [2]. The GI50 is 13700 nM with HCC827 [3]; 10200 nM with BT-474; 3600 nM in the test on MCF7; 3000 nM in the test with K562 [4]; 380 nM in the test with EOL1 [5]. The values for the Ratio with EOL1 [6], in the test on HCC827 [7] and in the test on K562 [8] were 0.99, 10.37 and 1.76, respectively.

Values taken from ChEMBL document CHEMBL4177643, “Trisubstituted purine inhibitors of PDGFRα and their antileukemic activity in the human eosinophilic cell line EOL-1” (Bioorg Med Chem, 2017).
